Test results published in EPA's ToxValDB 9.5 (doi:10.2903/j.efsa.2005.102r).
Values after ≈ are worked out from the molar mass of the structure shown.

Assays:
[1] = test system: Folsomia candida; settings: chronic/long-term; duration: 28 days
[2] = test system: Colinus virginianus; settings: oral, diet
[3] = test system: Anas platyrhynchos; settings: reproductive, duration: 5 days, oral, feed
[4] = test system: Tagia sp.; settings: acute; mortality
[5] = test system: Oncorhynchus mykiss
[6] = test system: Apis mellifera; settings: acute, duration: 48 hours, mortality
[7] = test system: Neomysis kadiakensis
[8] = test system: Pontoscolex corethrurus; settings: chronic/long-term; reproduction
[9] = test system: Gammarus pulex; settings: chronic/long-term; duration: 28 days
[10] = test system: Rattus norvegicus
[11] = test system: Daphnia magna; settings: chronic/long-term; duration: 21 days
[12] = test system: Canidae; settings: oral, Dog Other
[13] = test system: Aphidius rhopalosiphi; assay: LR50; higher = less toxic; settings: not reported; mortality
[14] = test system: Typhlodromus pyri; assay: LR50; higher = less toxic; settings: not reported; mortality
[15] = acute, duration: 96 hours, mortality

## CO/N=C(/C1=NOCCO1)c1ccccc1Oc1ncnc(Oc2ccccc2Cl)c1F [Fluoxastrobin]
[1]
  NOEC: 5 mg/kg
[2]; acute, duration: 5 days, mortality
  LC50: > 966 mg/kg-day
[2]; reproduction developmental, duration: 5 days
  NOEC: 151 mg/kg-day
[2]; short-term, mortality
  NOEL: 2000 mg/kg-day
[3]
  NOEC: 285 mg/kg-day
[3]; mortality
  LC50: > 2190 mg/kg-day
[4]
  LC50: > 500 mg/kg
[5]; [15]
  LC50: 0.435 mg/L (≈ 0.948 µM)
[5]; chronic/long-term, duration: 95 days, other
  NOEC: 0.0286 mg/L
[6]; dermal
  LD50: > 200 µg/piece
[6]; oral, unspecified
  LD50: > 843 µg/piece
[7]; [15]
  LC50: 0.0604 mg/L (≈ 0.132 µM)
[7]; chronic/long-term, duration: 28 days
  NOEC: 0.00061 mg/L
[8]
  NOEL: 1.33 mg/kg
[9]
  NOEC: 0.0316 mg/L
[10]; acute, oral, mortality
  LD50: > 2000 mg/kg
[10]; developmental, development
  NOAEL: > 742 mg/kg-day
[11]
  NOEC: 0.18 mg/L
[12]; chronic, duration: 1 years, clinical chemistry
  NOAEL: 3 mg/kg-day
[12]; subchronic, duration: 90 days, body weight
  NOAEL: 30 mg/kg-day
[12]; subchronic, duration: 90 days, clinical chemistry
  NOAEL: 3 mg/kg-day
[13]
  LR50: 34.1 g/ha
[14]
  LR50: 122 g/ha
